{"source": "patent US20260097036A1", "about": "(Kadmon Corporation, LLC, priority 2022, published 2026)", "key": {"pro-fibrotic signaling": {"system": "pro-fibrotic signaling", "conditions": "in vitro; cited from earlier work"}, "[1]": {"conditions": "cited from earlier work"}, "animal models of cGVHD": {"system": "animal models of cGVHD", "conditions": "in vivo; cited from earlier work"}, "[2]": {"test": "solubility and natural pH of the API", "assay_type": "physicochemical"}, "[3]": {"test": "Part 2 relative bioavailability and food effect, plasma PK", "assay_type": "in vivo, human", "conditions": "for Tlag / AUC % extrap / Lambda-z / half-life / Tmax / AUC(0-inf) / AUC(0-t) / Cmax / Vd/F: plasma; for half-life / Tmax / AUC(0-inf) / AUC(0-t) / Cmax / Vd/F: male, human, 200 mg; for Cmax: read-out: Cmax; for Vd/F: read-out: Vz/F", "experimental": "Subjects underwent preliminary screening procedures to determine their eligibility for Part 2 of the study at the screening visit (Day −28 to Day −2 of Part 2). Subjects who took part in Part 1 of the study were permitted to take part in Part 2.\nThree different regimens (G, H, and I), were used over the three periods. In Regimen G, belumosudil was administered in Tablet form (reference); and in Regimens H and I, belumosudil was administered in the form of Oral Liquid Formulation.\nIn Period 1, Day 1: subjects were randomized prior to administration of the first dose of IMP to 1 of 6 treatment sequences (GHI, HIG, IGH, IHG, GIH and HGI) with 3 subjects assigned to each treatment sequence. On Day 1 of each study period (periods 1, 2 and 3), subjects received the regimens in Table 36:\nRegimen H was administered to subjects as a flavorless low sucralose liquid formulation in a fasted state, and Regimens G and I were administered to subjects in a fed state. Regimen G was administered with a total of 240 mL of water. For Regimens H and I, immediately after IMP administration, subjects consumed water to a total volume of 240 mL (including the dosing volume).\nSubjects received a single dose of IMP in the morning of Day 1 following an overnight fast of a minimum of 10 h (Regimen H, fasted state) or following a standard breakfast (Regimens G and I, fed state). Blood samples were collected at regular intervals for PK analysis. Following administration of Regimen H, subjects completed a written taste/palatability questionnaire individually and privately.\nSubjects were resident in the clinical unit for 10 consecutive nights that covered all 3 treatment periods. All subjects remained on site until 72 h post-final dose for safety and PK assessments. There was a minimum washout of 3 days between each IMP administration. To ensure the ongoing wellbeing of the subjects, a follow-up phone call took place 3 to 7 days post-final dose. If a subject reported any AEs after discharge which represented a cause for concern, they were required to attend the clinical unit for a follow-up assessment. This would have been an unscheduled visit."}, "[4]": {"test": "stability study with pH modifiers, XRPD of isolated solids (samples 2.1-2.6)", "assay_type": "physicochemical", "conditions": "T = 28 days 40° C./75% RH", "experimental": "Samples were prepared containing sodium benzoate as a preservative and with the pH adjusted with either citric acid or tartaric acid which were compared with samples having no pH modifier.\nThe above samples were prepared for XRPD analysis in three steps: solids were isolated by centrifugation at 3000 rpm for 20 minutes; the supernatant was decanted; and the samples were dried under vacuum at ambient temperature for 18-24 hours overnight. XRPD data of the solid samples was obtained."}, "[5]": {"test": "excipient compatibility testing of dry binary mixes", "assay_type": "physicochemical", "conditions": "binary mixes 1:1; 2-8° C. and 40° C./75% RH, over a 14-day period", "experimental": "The dry binary mixes were analyzed for appearance and related substances after storage at 2-8° C. (control storage condition) and 40° C./75% RH for 14 days and 28 days. The binary mixes were also tested for visual appearance at initial mixing."}, "[6]": {"conditions": "po, Regimen G: 200 mg Tablet, Fed, single oral dose, geometric mean (CV%)"}, "[7]": {"conditions": "po, Regimen H: 200 mg Liquid Formulation, Fasted, single oral dose, geometric mean (CV%)"}, "[8]": {"conditions": "po, Regimen I: 200 mg Liquid Formulation, Fed, single oral dose, geometric mean (CV%)"}}, "note": "Like-named read-outs stand apart in the source and are kept apart here."}
{"compound": "CC(C)NC(=O)COc1cccc(-c2nc(Nc3ccc4[nH]ncc4c3)c3ccccc3n2)c1", "note": "[Belumosudil, 2-{3-[4-(1H-indazol-5-ylamino)-2-quinazolinyl]phenoxy}-N-(propan-2-yl)acetamide, reference compound]", "values": [{"measurement": "aberrant pro-fibrotic signaling", "setting": "pro-fibrotic signaling", "result": "inhibited aberrant pro-fibrotic signaling"}, {"measurement": "solubility in water", "setting": "[1]", "result": "practically insoluble"}, {"measurement": "activity in animal models of cGVHD", "setting": "animal models of cGVHD", "result": "demonstrated activity"}, {"measurement": "natural pH of API in water", "setting": "[2]; API in water", "result": "~3", "unit": "pH"}, {"measurement": "solubility", "setting": "[2]; at pH 2.0-3.0", "result": "soluble"}, {"measurement": "Tlag", "setting": "[3]; Regimen G: 200 mg Tablet, Fed, single oral dose, healthy male volunteers, median (range)", "result": 0.500, "unit": "h"}, {"measurement": "AUC % extrap", "setting": "[3]; Regimen G: 200 mg Tablet, Fed, single oral dose, geometric mean (CV%)", "result": "2.601 (44.8%)"}, {"measurement": "Lambda-z", "setting": "[3]; Regimen G: 200 mg Tablet, Fed, single oral dose, geometric mean (CV%), individual values where n <= 2", "result": "0.074 (57.7%) l/h"}, {"measurement": "Tlag", "setting": "[3]; Regimen H: 200 mg Liquid Formulation, Fasted, single oral dose, healthy male volunteers, median (range)", "result": 0.00, "unit": "h"}, {"measurement": "AUC % extrap", "setting": "[3]; Regimen H: 200 mg Liquid Formulation, Fasted, single oral dose, geometric mean (CV%)", "result": "2.785 (50.4%)"}, {"measurement": "Lambda-z", "setting": "[3]; Regimen H: 200 mg Liquid Formulation, Fasted, single oral dose, geometric mean (CV%), individual values where n <= 2", "result": "0.073 (43.5%) l/h"}, {"measurement": "Tlag", "setting": "[3]; Regimen I: 200 mg Liquid Formulation, Fed, single oral dose, healthy male volunteers, median (range)", "result": 0.00, "unit": "h"}, {"measurement": "AUC % extrap", "setting": "[3]; Regimen I: 200 mg Liquid Formulation, Fed, single oral dose, geometric mean (CV%)", "result": "1.918 (34.9%)"}, {"measurement": "Lambda-z", "setting": "[3]; Regimen I: 200 mg Liquid Formulation, Fed, single oral dose, geometric mean (CV%), individual values where n <= 2", "result": "0.102 (49.2%) l/h"}, {"measurement": "peak (Cmax) and total exposure (AUC), liquid formulation vs tablet", "setting": "[3]; both in the fed state, GMR comparison", "result": "largely similar to that of the tablet reference"}, {"measurement": "time from which concentrations were evident", "setting": "[3]; liquid formulation, fasted and fed (Regimens H and I)", "result": 0.5, "unit": "h"}, {"measurement": "half-life", "setting": "[3]; oral, Regimen G, tablet fed, read-out: elimination half-lives (range)", "result": "4.84 to 33", "unit": "h"}, {"measurement": "half-life", "setting": "[3]; oral, Regimen H, liquid formulation fasted, read-out: elimination half-lives (range)", "result": "5.36 to 23.8", "unit": "h"}, {"measurement": "half-life", "setting": "[3]; oral, Regimen I, liquid formulation fed, read-out: elimination half-lives (range)", "result": "2.38 to 15.7", "unit": "h"}, {"measurement": "half-life", "setting": "[3]; oral, Regimens G, H, I, read-out: geometric mean half-life (range over regimens)", "result": "6.79 to 9.5", "unit": "h"}, {"measurement": "Tmax", "setting": "[3]; po, Regimen G: 200 mg Tablet, Fed, single oral dose, healthy male volunteers, median (range), read-out: Tmax", "result": 3, "unit": "h"}, {"measurement": "AUC(0-inf)", "setting": "[3]; [6]", "result": 10200, "unit": "ng·h/mL"}, {"measurement": "half-life", "setting": "[3]; po, Regimen G: 200 mg Tablet, Fed, single oral dose, geometric mean (CV%), individual values where n <= 2, read-out: T1/2 (converted)", "result": 9.39, "unit": "h"}, {"measurement": "AUC(0-t)", "setting": "[3]; po, Regimen G: 200 mg Tablet, Fed, single oral dose, geometric mean (CV%), read-out: AUC (0-24)", "result": 9310, "unit": "ng·h/mL"}, {"measurement": "AUC(0-t)", "setting": "[3]; po, Regimen G: 200 mg Tablet, Fed, single oral dose, geometric mean (CV%), read-out: AUC (0-last)", "result": 9720, "unit": "ng·h/mL"}, {"measurement": "Cmax", "setting": "[3]; [6]", "result": 1930, "unit": "ng/mL"}, {"measurement": "Vd/F", "setting": "[3]; [6]", "result": 265, "unit": "L"}, {"measurement": "Tmax", "setting": "[3]; po, Regimen H: 200 mg Liquid Formulation, Fasted, single oral dose, healthy male volunteers, median (range), read-out: Tmax", "result": 1.5, "unit": "h"}, {"measurement": "AUC(0-inf)", "setting": "[3]; [7]", "result": 8430, "unit": "ng·h/mL"}, {"measurement": "half-life", "setting": "[3]; po, Regimen H: 200 mg Liquid Formulation, Fasted, single oral dose, geometric mean (CV%), individual values where n <= 2, read-out: T1/2 (converted)", "result": 9.5, "unit": "h"}, {"measurement": "AUC(0-t)", "setting": "[3]; po, Regimen H: 200 mg Liquid Formulation, Fasted, single oral dose, geometric mean (CV%), read-out: AUC (0-24)", "result": 7620, "unit": "ng·h/mL"}, {"measurement": "AUC(0-t)", "setting": "[3]; po, Regimen H: 200 mg Liquid Formulation, Fasted, single oral dose, geometric mean (CV%), read-out: AUC (0-last)", "result": 8010, "unit": "ng·h/mL"}, {"measurement": "Cmax", "setting": "[3]; [7]", "result": 1550, "unit": "ng/mL"}, {"measurement": "Vd/F", "setting": "[3]; [7]", "result": 325, "unit": "L"}, {"measurement": "AUC(0-inf)", "setting": "[3]; [8]", "result": 9500, "unit": "ng·h/mL"}, {"measurement": "half-life", "setting": "[3]; po, Regimen I: 200 mg Liquid Formulation, Fed, single oral dose, geometric mean (CV%), individual values where n <= 2, read-out: T1/2 (converted)", "result": 6.79, "unit": "h"}, {"measurement": "AUC(0-t)", "setting": "[3]; po, Regimen I: 200 mg Liquid Formulation, Fed, single oral dose, geometric mean (CV%), read-out: AUC (0-24)", "result": 9340, "unit": "ng·h/mL"}, {"measurement": "AUC(0-t)", "setting": "[3]; po, Regimen I: 200 mg Liquid Formulation, Fed, single oral dose, geometric mean (CV%), read-out: AUC (0-last)", "result": 9570, "unit": "ng·h/mL"}, {"measurement": "Cmax", "setting": "[3]; [8]", "result": 1790, "unit": "ng/mL"}, {"measurement": "Vd/F", "setting": "[3]; [8]", "result": 206, "unit": "L"}, {"measurement": "Tmax", "setting": "[3]; po, single oral 200 mg as liquid formulation, fasted state, read-out: median Tmax", "result": 1.5, "unit": "h"}, {"measurement": "Tmax", "setting": "[3]; po, single oral 200 mg as tablet reference, fed, read-out: median Tmax", "result": 3, "unit": "h"}, {"measurement": "XRPD of isolated solids (form stability)", "setting": "[4]", "result": "stable in the formulation"}, {"measurement": "compatibility with hydrochloric acid and maleic acid", "setting": "[5]", "result": "not compatible"}]}
